The compounds below were run against T1, recombinant human 11 β-HSD1 (Homo sapiens, UniProt P28845) (assay: 11 β-HSD1 SPA Assay (Scintillation Proximity Assay)).
T1 construct: made in house; host or cells: E. coli
Format: biochemical
How it was run: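 E. coli-expressed human enzyme (30-100 nM) with tritiated cortisone 40 nM and NADPH 1 mM in HEPES buffer pH7.4, 2 hours at room temperature. Stopped with protein A SPA beads carrying anti-cortisol antibody and glycyrrhetinic acid; counted after overnight incubation. IC50 from percent inhibition between no-enzyme and no-compound signals.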

T1 sequence (P28845 whole entry): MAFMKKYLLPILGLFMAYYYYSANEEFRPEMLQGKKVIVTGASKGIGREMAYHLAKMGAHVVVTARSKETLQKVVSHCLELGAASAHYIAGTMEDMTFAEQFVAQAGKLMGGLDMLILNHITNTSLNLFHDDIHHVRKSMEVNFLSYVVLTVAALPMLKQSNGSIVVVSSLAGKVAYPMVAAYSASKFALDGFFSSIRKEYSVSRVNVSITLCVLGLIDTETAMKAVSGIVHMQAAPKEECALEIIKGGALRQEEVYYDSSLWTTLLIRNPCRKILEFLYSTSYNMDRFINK

How did the IC50 turn out when `CC(C)(Oc1ccc(Cl)cc1CO)C(=O)N[C@H]1C[C@H]2CC[C@@H](C1)N2c1ccc(C(=O)NCC(F)(F)F)cn1` [Example 376, 6-[3-endo-({2-[4-chloro-2-(hydroxymethyl)phenoxy]-2-methylpropanoyl}amino)-8-azabicyclo[3.2.1]oct-8-yl]-N-(2,2,2-trifluoroethyl)pyridine-3-carboxamide] was run?
Its IC50 is < 0.2 µM.

How did the IC50 turn out when `CCN(CC)CCNC(=O)c1ccc(N2[C@@H]3CC[C@H]2C[C@@H](NC(=O)C(C)(C)Oc2ccc(Cl)cc2Cl)C3)nc1` [Example 377, 6-(3-endo-{[2-(2,4-dichlorophenoxy)-2-methylpropanoyl]amino}-8-azabicyclo[3.2.1]oct-8-yl)-N-[2-(diethylamino)ethyl]pyridine-3-carboxamide] was run?
The IC50 was < 0.2 µM.

With `CC(C)(Oc1ccc(Cl)cc1Cl)C(=O)N[C@H]1C[C@H]2CC[C@@H](C1)N2c1ccc(C(=O)NC2CCOCC2)cn1` [Example 378, 6-(3-endo-{[2-(2,4-dichlorophenoxy)-2-methylpropanoyl]amino}-8-azabicyclo[3.2.1]oct-8-yl)-N-(tetrahydro-2h-pyran-4-yl)pyridine-3-carboxamide] as the compound, how does the IC50 read?
The IC50 was < 0.2 µM.

How did the IC50 turn out when `CC(C)(Oc1ccc(Cl)cc1Cl)C(=O)N[C@H]1C[C@H]2CC[C@@H](C1)N2c1ccc(C(=O)NC2CCS(=O)(=O)CC2)cn1` [Example 379, 6-(3-endo-{[2-(2,4-dichlorophenoxy)-2-methylpropanoyl]amino}-8-azabicyclo[3.2.1]oct-8-yl)-N-(1,1-dioxidotetrahydro-2h-thiopyran-4-yl)pyridine-3-carboxamide] was run?
Its IC50 is < 0.2 µM.

With `CC(C)(Oc1ccc(Cl)cc1Cl)C(=O)N[C@H]1C[C@H]2CC[C@@H](C1)N2c1ccc(C(=O)NC2CCSCC2)cn1` [Example 380, 6-(3-endo-{[2-(2,4-dichlorophenoxy)-2-methylpropanoyl]amino}-8-azabicyclo[3.2.1]oct-8-yl)-N-(tetrahydro-2H-thiopyran-4-yl)pyridine-3-carboxamide] as the compound, how does the IC50 read?
Its IC50 is < 0.2 µM.

How did the IC50 turn out when `CC(C)(Oc1cc(C(C)(C)O)c(Cl)cc1Cl)C(=O)NC1CC2CCC(C1)N2c1ccc(C(=O)NCC(O)C(F)(F)F)cn1` (stereo not drawn) [Example 381, 6-[3-endo-({2-[2,4-dichloro-5-(2-hydroxypropan-2-yl)phenoxy]-2-methylpropanoyl}amino)-8-azabicyclo[3.2.1]oct-8-yl]-N-(3,3,3-trifluoro-2-hydroxypropyl)pyridine-3-carboxamide] was run?
Its IC50 is < 0.2 µM.

For `COCCOc1cc(OC(C)(C)C(=O)N[C@H]2C[C@H]3CC[C@@H](C2)N3c2ccc(C(=O)NCC(F)(F)F)cn2)c(Cl)cc1Cl` [Example 382, 6-[3-endo-({2-[2,4-dichloro-5-(2-methoxyethoxy)phenoxy]-2-methylpropanoyl}amino)-8-azabicyclo[3.2.1]oct-8-yl]-N-(2,2,2-trifluoroethyl)pyridine-3-carboxamide], which IC50 is on record?
The IC50 was < 0.2 µM.

For `CC(C)(Oc1ccc(Cl)cc1CCO)C(=O)N[C@H]1C[C@H]2CC[C@@H](C1)N2c1ccc(C(=O)NCC(F)(F)F)cn1` [Example 383, 6-[3-endo-({2-[4-chloro-2-(2-hydroxyethyl)phenoxy]-2-methylpropanoyl}amino)-8-azabicyclo[3.2.1]oct-8-yl]-N-(2,2,2-trifluoroethyl)pyridine-3-carboxamide], which IC50 is on record?
Its IC50 is < 0.2 µM.

For `CC(C)(Oc1ccc(Cl)cc1Cl)C(=O)N[C@H]1C[C@H]2CC[C@@H](C1)N2c1ccc(C(=O)NC2(CO)CC2)cn1` [Example 384, 6-(3-endo-{[2-(2,4-dichlorophenoxy)-2-methylpropanoyl]amino}-8-azabicyclo[3.2.1]oct-8-yl)-N-[1-(hydroxymethyl)cyclopropyl] pyridine-3-carboxamide], which IC50 is on record?
The IC50 was < 0.2 µM.

For `CC(C)(Oc1cccc2[nH]ncc12)C(=O)N[C@H]1C[C@H]2CC[C@@H](C1)N2c1ccc(C(=O)NCC(F)(F)F)cn1` [Example 385, 6-(3-endo-{[2-(1H-indazol-4-yloxy)-2-methylpropanoyl]amino}-8-azabicyclo[3.2.1]oct-8-yl)-N-(2,2,2-trifluoroethyl)pyridine-3-carboxamide], which IC50 is on record?
The IC50 was < 0.2 µM.
